What was measured:
AdipoR1 [1] = test: Measurement of AMPK phosphorylation ability (Assay 2), C2C12 cells with unrelated or AdipoR1 siRNA; assay type: cell-based, Mouse
Procedure: C2C12 cells (ATCC; CRL-1772, medium; DMEM, 10% Fetal Bovine Serum (FBS)) were cultured in a 12- or 24-well plate until they reached 100% confluency (37° C., 5% CO2). The medium was changed to DMEM, 2.5% Horse Serum (HS) and differentiation was started. The medium (DMEM, 2.5% HS) was replaced two days after the start of differentiation. The medium (DMEM, 2.5% HS) was further replaced two days after that.
On the next day following the replacement of the medium, first, 1 μL of Lipofectamine RNAiMAX and 50 μL of OPTI-MEM were mixed, and then 5 μM siRNA (sense siRNA sequence: […]tt (SEQ ID NO: 1)) and 50 μL of OPTI-MEM were mixed and the resultants were left to stand at room temperature for 5 minutes. And then, the 1 μL Lipofectamine RNAiMAX/50 μL OPTI-MEM and the 5 μM siRNA/50 μL OPTI-MEM were mixed, and the resultant was left to stand at room temperature for 10 minutes, which was added to the cells.
After 5 minutes, the medium (DMEM, 2.5 HS) was replaced, and after starvation on the next day, a test compound listed in Table 12 was added thereto. After 10 minutes, the medium was discarded and the plate was frozen with liquid nitrogen.
The respective amounts of pAMPK and AMPK were determined in the same way as in the above Assay 1.

AdipoR1 [2] = target: T1, AdipoR1 (Mus musculus, UniProt Q91VH1); test: Measurement of AMPK phosphorylation ability (Assay 1), differentiated C2C12 cells, Western blotting; assay type: cell-based; conditions: 10 μM, 10 minutes
T1 construct: C2C12 cells (ATCC; CRL-1772, medium; host or cells: differentiated C2C12
T1 sequence (Q91VH1 1-375): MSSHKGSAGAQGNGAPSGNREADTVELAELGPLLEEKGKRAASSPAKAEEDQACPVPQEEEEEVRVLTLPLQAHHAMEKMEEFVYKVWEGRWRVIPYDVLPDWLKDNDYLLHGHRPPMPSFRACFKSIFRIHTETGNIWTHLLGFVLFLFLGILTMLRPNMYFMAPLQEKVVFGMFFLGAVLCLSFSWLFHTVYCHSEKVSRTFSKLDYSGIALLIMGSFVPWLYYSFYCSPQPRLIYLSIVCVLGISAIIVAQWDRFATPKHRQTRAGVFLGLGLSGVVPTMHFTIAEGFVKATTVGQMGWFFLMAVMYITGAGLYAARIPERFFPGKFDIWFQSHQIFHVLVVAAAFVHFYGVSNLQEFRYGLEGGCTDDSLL
Procedure: The AMPK phosphorylation ability of the respective compounds according to the present invention was measured by using differentiated C2C12 cells or HEK 293T cells.
C2C12 cells (ATCC; CRL-1772, medium; DMEM, 10% FBS) were cultured in a 12- or 24-well plate until they reached 100% confluency (37° C., 5% CO2).
The medium was changed to 2.5% Horse Serum (HS) and differentiation was started. The medium (DMEM, 2.5% HS) was replaced every three days.
After starvation, a test compound listed in Table 12 (concentration: 10 μM) was added thereto, and after 10 minutes, the medium was discarded and the plate was frozen with liquid nitrogen.
To the 12- or 24-well cell plate which had been frozen was added 100 or 150 μL of Cell lysis buffer pH 7.4 (50 mM HEPES (pH 7.4), 2 mM sodium orthovanadate, 10 mM sodium pyrophosphate, 10 mM NaF, 2 mM EDTA, 2 mM EGTA, 0.1% (v/v) NP-40, 0.2 mM PMSF), and the cells were scraped off with a cell scraper, suspended and transferred into a micro centrifugal tube. And then, the cells were ultrasonically crushed (1 second×3 times) with a sonicator. Centrifugation was performed at 4° C. at 15,000 rpm for 15 minutes, and the supernatant was recovered into a new tube.
To 100 μL of the supernatant was added 25 μL of 5× sample buffer (280 mM Tris-HCl (pH 6.9), 40% glycerol, 10% (3-mercaptoethanol, 13% SDS, a small amount of bromophenol blue) and mixed together. The rest of the supernatant was used for protein quantification, and the protein concentrations were uniformed by adding 1× sample buffer depending on the concentration of each sample.
An electrophoresis chamber was filled with 1× SDS buffer (25 mM Tris-HCl, 250 mM glycine, 0.1% SDS), and the sample was applied to a well of polyacrylamide gel. Electrophoresis was performed until the bromophenol blue in the sample reached to the bottom of the gel.
A filter paper was soaked in 1× Transfer buffer sufficiently, above which the PVDF membrane and the gel after electrophoresis were stacked in this order, and thereabove a filter paper which had been soaked in 1× Transfer buffer sufficiently was further stacked, from which an air was removed and the resultant was set in semi-dry type transfer apparatus and transferred (7V, 35 minutes).
An unnecessary portion of the blotted membrane was cutoff, and the rest was immediately soaked in blocking buffer (5% skimmed milk in Rinse buffer), and shaken at room temperature at 40 rpm for 3 hours.
After blocking, the membrane was transferred into Rinse buffer, and washed at room temperature for 10 minutes while shaking. The membrane was soaked in a primary antibody solution (AMPK alpha Antibody (Cell signaling; #2532) 1/1,000 in Rinse buffer, Phospho-AMPK alpha (Thr172) (40H9) antibody (Cell signaling; #2535) 1/1,000 in Rinse buffer), and shaken at 4° C. at 40 rpm overnight.
The membrane was soaked in a secondary antibody solution (goat anti-rabbit IgG-HRP Antibody (Santa Cruz; sc-2030) 1/2,000 in Rinse buffer), and shaken at room temperature at 40 rpm for 1 hour.
After the membrane was washed for 45 minutes in the same way as after the primary antibody reaction, the membrane was soaked in a chemiluminescent reaction solution (ECL Western Blotting Detection Reagents, GE Healthcare) for about 1 minute. An excess of the reaction solution was removed, and then the membranes were arranged on a transparent film and sandwiched with it, with which an X-ray film was exposed in a darkroom (for about several seconds to 60 seconds) to develop the film.
The X-ray film was scanned to take the image, for which the band was measured by using the image analysis software “Image J” to determine the respective amounts of pAMPK and AMPK.

Row | SMILES | pAMPK/AMPK (ratio) siRNA, AdipoR1 siRNA (AdipoR1 [1]) [ratio] | pAMPK/AMPK (ratio) siRNA, unrelated siRNA (AdipoR1 [1]) [ratio] | pAMPK/AMPK (%) (AdipoR1 [2])
1 | O=C(NC1CCCC1)c1ccc(OC2CCN(Cc3cccc(O)c3)CC2)c(Cl)c1 [No. 251327] | 3.15 | 2.85 | 83.18
2 | O=C(NCC[C@@H]1C[C@@H]2C=C[C@H]1C2)c1ccc(OC2CCN(Cc3ccccn3)CC2)cc1 [No. 260544] | 4.12 | 3.79 | 81.90
3 | O=C(NCCc1ccc(Cl)cc1)c1ccc(OC2CCN(Cc3ccccn3)CC2)cc1 [No. 264785] | 3.58 | 3.70 | 80.62
4 | O=C(NC1CCCC1)c1ccc(OC2CCN(Cc3ccoc3)CC2)c(Cl)c1 [No. 268508] | 2.87 | 2.58 | 80.12
5 | C#CCN(Cc1ccco1)C(=O)c1ccc(OC2CCN(Cc3ccccn3)CC2)cc1 [No. 268949] | 2.82 | 3.10 | 86.36
6 | COc1ccccc1CN1CCC(Oc2ccc(C(=O)NC3CCCC3)cc2Cl)CC1 [No. 272299] | 2.60 | 2.83 | 91.22
7 | CC#CCN(Cc1ccco1)C(=O)c1ccc(OC2CCN(Cc3ccccn3)CC2)cc1 [No. 272350] | 2.54 | 2.03 | 84.20
8 | COCCNC(=O)c1ccc(OC2CCN(Cc3cc(OC)ccc3F)CC2)c(Cl)c1 [No. 274971] | 2.51 | 2.38 | 81.64
9 | CCc1ccc(CN2CCC(Oc3ccc(C(=O)NCCOC)cc3Cl)CC2)cc1 [No. 466151] | 1.94 | 2.22 | 89.26
10 | COCCNC(=O)c1ccc(OC2CCN(Cc3cc4ccccc4o3)CC2)c(Cl)c1 [No. 473771] | 2.39 | 1.67 | 85.03
11 | COCCNC(=O)c1ccc(OC2CCN(Cc3cccc4nonc34)CC2)c(Cl)c1 [No. 484140] | 2.30 | 2.34 | 81.88
12 | Cc1cccc(CN2CCC(Oc3ccc(C(=O)NC4CCCC4)cc3Cl)CC2)n1 [No. 492284] | 1.88 | 2.05 | 90.14
13 | O=C(NC1CCN(Cc2ccccc2)CC1)c1ccc(Cl)c(Cl)c1 [No. 550212] | 2.14 | 1.91 | 80.04
